The values that follow come from ChEMBL document CHEMBL1156680, “3D-QSAR studies of triazafluorenone inhibitors of metabotropic glutamate receptor subtype 1” (Eur J Med Chem, 2008).

For the first assay, the target named is Metabotropic glutamate receptor 1 (Rattus norvegicus, UniProt P23385). The assay is described as follows: Inhibition of rat mGluR1. The conditions noted are these: read-out: IC50.
Chain of Metabotropic glutamate receptor 1 (P23385 whole entry): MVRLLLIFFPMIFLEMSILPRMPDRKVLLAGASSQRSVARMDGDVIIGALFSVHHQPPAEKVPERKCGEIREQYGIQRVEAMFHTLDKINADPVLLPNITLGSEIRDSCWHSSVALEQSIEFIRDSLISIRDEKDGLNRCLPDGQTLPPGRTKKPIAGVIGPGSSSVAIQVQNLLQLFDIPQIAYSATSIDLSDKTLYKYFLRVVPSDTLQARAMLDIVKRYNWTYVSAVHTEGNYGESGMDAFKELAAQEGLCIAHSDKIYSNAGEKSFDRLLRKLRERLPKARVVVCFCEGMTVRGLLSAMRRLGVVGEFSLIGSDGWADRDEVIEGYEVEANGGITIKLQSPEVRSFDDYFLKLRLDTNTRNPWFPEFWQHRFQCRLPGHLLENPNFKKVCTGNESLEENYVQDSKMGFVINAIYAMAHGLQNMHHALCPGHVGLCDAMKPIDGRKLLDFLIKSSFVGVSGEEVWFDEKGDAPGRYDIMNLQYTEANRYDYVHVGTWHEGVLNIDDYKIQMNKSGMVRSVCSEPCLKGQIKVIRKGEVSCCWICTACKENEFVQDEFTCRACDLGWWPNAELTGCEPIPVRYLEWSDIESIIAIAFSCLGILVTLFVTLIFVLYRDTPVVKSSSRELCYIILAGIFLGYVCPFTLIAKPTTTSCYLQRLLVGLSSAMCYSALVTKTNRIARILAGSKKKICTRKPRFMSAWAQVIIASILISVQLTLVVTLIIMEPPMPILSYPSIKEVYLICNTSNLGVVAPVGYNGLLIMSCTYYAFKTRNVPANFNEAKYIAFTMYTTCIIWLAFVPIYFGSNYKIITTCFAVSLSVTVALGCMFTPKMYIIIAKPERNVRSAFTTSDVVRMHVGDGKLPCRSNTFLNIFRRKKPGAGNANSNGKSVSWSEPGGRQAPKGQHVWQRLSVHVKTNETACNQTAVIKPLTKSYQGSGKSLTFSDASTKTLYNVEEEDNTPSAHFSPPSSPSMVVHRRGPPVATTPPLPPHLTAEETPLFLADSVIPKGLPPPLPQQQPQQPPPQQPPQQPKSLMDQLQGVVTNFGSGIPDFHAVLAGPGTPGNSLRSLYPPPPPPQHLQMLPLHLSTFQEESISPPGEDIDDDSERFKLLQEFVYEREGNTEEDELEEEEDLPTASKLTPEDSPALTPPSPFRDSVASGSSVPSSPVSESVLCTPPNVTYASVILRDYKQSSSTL
For the compound `CC(C)c1ccc(-n2cnc3c(sc4nccc(N(C)C)c43)c2=O)cc1`, the IC50 was 407 nM. As for `CN(C)c1ccnc2sc3c(=O)n(-c4ccc(Cl)cc4Cl)cnc3c12`, the IC50 was determined as 45 nM. On to `CN(C)c1ccnc2sc3c(=O)n(C45CC6CC(CC(C6)C4)C5)cnc3c12`, for which the IC50 is 76 nM. Same read-out and setting: then `CN(C)c1ccnc2sc3c(=O)n(-c4ccc(C5CC5)cc4)cnc3c12`, with 87 nM; and `CN(C)c1ccnc2sc3c(=O)n(-c4ccc(C(C)(C)C)cc4)cnc3c12`, with 8500 nM. `CN(C)c1ccnc2sc3c(=O)n(C4CCCCCCC4)cnc3c12`: the IC50 was 13 nM. Turning to `CC1CCCCC1n1cnc2c(sc3nccc(N(C)C)c32)c1=O` (stereo unspecified), the IC50 is 130 nM. For `CN(C)c1ccnc2sc3c(=O)n(Cc4ccccc4)cnc3c12`, the IC50 was 281 nM. On to `CN(C)c1ccnc2sc3c(=O)n(C4CCCCC4)cnc3c12`, for which the IC50 was found to be 50 nM. The same measure, in the same setting: then `CN(C)c1ccnc2sc3c(=O)n(-c4ccc(F)cc4)cnc3c12`, with 23 nM; and `CCc1ccc(-n2cnc3c(sc4nccc(N(C)CC)c43)c2=O)cc1`, with 37 nM; and `CC1CCC(n2cnc3c(sc4nccc(N(C)C)c43)c2=O)CC1` (stereo unspecified), with 140 nM. As to `CN(C)c1ccnc2sc3c(=O)n(-c4ccc(Br)cc4)cnc3c12`, the IC50 was 4 nM.

`CN(C)c1ccnc2sc3c(=O)n(-c4ccc(C(F)(F)F)cc4)cnc3c12`: the IC50 amounted to 32 nM.

Regarding `CCc1ccc(-n2cnc3c(sc4nccc(NCC(F)(F)F)c43)c2=O)cc1`, the IC50 turned out to be 99 nM.

Take `CCc1ccc(-n2cnc3c(sc4nccc([N+](C)(C)[O-])c43)c2=O)cc1`: the IC50 turned out to be 306 nM. Same read-out and setting: then `CN(C)c1ccnc2sc3c(=O)n(CC4CCCCC4)cnc3c12`, with 139 nM; and `COc1ccc(-n2cnc3c(sc4nccc(N(C)C)c43)c2=O)cn1`, with 39 nM. Regarding `CCC(CC)n1cnc2c(sc3nccc(N(C)C)c32)c1=O`, the IC50 was determined as 335 nM.

With `CCc1ccc(-n2c(C)nc3c(sc4nccc(N(C)C)c43)c2=O)cc1`, the IC50 was 44 nM. The same measure, in the same setting: then `CN(C)c1ccnc2sc3c(=O)n(C4CCC4)cnc3c12`, with 167 nM. The same measure, in the same setting: then `CCCc1ccc(-n2cnc3c(sc4nccc(N(C)C)c43)c2=O)cc1`, with 180 nM; and `CN(C)c1ccnc2sc3c(=O)n(C4CCCCCC4)cnc3c12`, with 1 nM. The same measure, in the same setting: then `CCc1ccc(-n2cnc3c(sc4nccc(N(C)CCOC)c43)c2=O)cc1`, with 71 nM; and `CCc1ccc(-n2cnc3c(sc4nccc(N(C)C)c43)c2=O)cc1`, with 3 nM. As for `CN(C)c1ccnc2sc3c(=O)n(C4CCCC4)cnc3c12`, the IC50 stood at 5 nM.

Regarding `CCc1ccc(-n2c(CC)nc3c(sc4nccc(N(C)C)c43)c2=O)cc1`, the IC50 worked out at 84 nM. Turning to `Cc1ccc(-n2cnc3c(sc4nccc(N(C)C)c43)c2=O)cc1`, the IC50 worked out at 5 nM.

As for `CCc1cccc(-n2cnc3c(sc4nccc(N(C)C)c43)c2=O)c1`, the IC50 worked out at 9 nM.

Take `CN(C)c1ccnc2sc3c(=O)n(CC4CCCC4)cnc3c12`: the IC50 is 26 nM. Turning to `CN(C)c1ccnc2sc3c(=O)n(-c4ccc(Cl)cc4)cnc3c12`, the IC50 came out at 16 nM. The same measure, in the same setting: then `CN(C)c1ccnc2sc3c(=O)n(-c4ccc5cc[nH]c5c4)cnc3c12`, with 122 nM; and `Cc1ccc(-n2cnc3c(sc4nccc(N(C)C)c43)c2=O)c(C)c1`, with 17 nM. In the case of `CCc1ccc(-n2cnc3c(sc4nccc(NC5CC5)c43)c2=O)cc1`, the IC50 is 41 nM.

Regarding `CCc1ccc(-n2cnc3c(sc4nccc(NCC#N)c43)c2=O)cc1`, the IC50 is 49 nM. In the case of `CN(C)c1ccnc2sc3c(=O)n(N4CCCCCC4)cnc3c12`, the IC50 stood at 10 nM. Take `CN(C)c1ccnc2sc3c(=O)n(-c4ccccc4O)cnc3c12`: the IC50 came out at 50 nM. As to `CN(C)c1ccnc2sc3c(=O)n(C4CC4)cnc3c12`, the IC50 was 632 nM.

`CCCCc1nc2c(sc3nccc(N(C)C)c32)c(=O)n1-c1ccc(CC)cc1`: the IC50 stood at 101 nM. With `CCc1ccccc1-n1cnc2c(sc3nccc(N(C)C)c32)c1=O`, the IC50 worked out at 251 nM. For `CCc1ccc(-n2cnc3c(sc4nccc(N5CCC5)c43)c2=O)cc1`, the IC50 is 113 nM. With `C[N+](C)([O-])c1ccnc2sc3c(=O)n(C4CCCCCC4)cnc3c12`, the IC50 was 167 nM. `CCc1ccc(-n2cnc3c(sc4nccc(NC)c43)c2=O)cc1`: the IC50 is 98 nM.

As to `CN(C)c1ccnc2sc3c(=O)n(-c4ccccc4)cnc3c12`, the IC50 came to 20 nM. `CC1CCCC(n2cnc3c(sc4nccc(N(C)C)c43)c2=O)C1` (stereo unspecified): the IC50 was found to be 482 nM.

The same assay, now with this note: read-out: pIC50 (converted).
For the compound `CCc1ccc(-n2cnc3c(sc4nccc(NCC#N)c43)c2=O)cc1`, the IC50 is 42.7 nM.
